From paper PMC12668310, “High‐Throughput Synthesis and Screening of a Cyanimide Library Identifies Selective Inhibitors of ISG15‐Specific Protease mUSP18” (Angewandte Chemie (International Ed. in English), 2025)

Molecular target: T1, mUSP18 (Mus musculus, UniProt Q9WTV6)
T1 construct: (46-368); His-tag (N); made in house
T1 sequence (Q9WTV6 46-368): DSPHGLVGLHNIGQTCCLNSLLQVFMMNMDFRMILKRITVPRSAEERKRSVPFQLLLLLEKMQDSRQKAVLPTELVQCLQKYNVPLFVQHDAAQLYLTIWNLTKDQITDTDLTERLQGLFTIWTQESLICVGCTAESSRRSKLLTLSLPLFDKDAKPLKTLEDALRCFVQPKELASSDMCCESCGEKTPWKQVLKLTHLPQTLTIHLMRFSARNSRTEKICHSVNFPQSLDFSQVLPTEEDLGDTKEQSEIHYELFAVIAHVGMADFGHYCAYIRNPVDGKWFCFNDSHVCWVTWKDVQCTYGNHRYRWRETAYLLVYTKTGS
Assay: High-throughput screening, ISG15ct-RhoMP, single dose 1.25 µM
Assay type: biochemical, murine
Details: mUSP18 %inhibition; carboxylic acid (CA) building block alone; read-out: %inh CA only

| SMILES | inhibition at 1.25 µM |
| --- | --- |
| O=C(O)c1cnn(CC2CCCCO2)c1 (centres unmarked) [CA174] | 2.59% |
| Cc1cc(C(=O)O)c(C2CC2)s1 [CA175] | 1.19% |
| O=C(O)c1ccc(-n2ccnc2)nn1 [CA176] | 15.3% |
| O=C(O)c1c(-c2ccccc2)noc1C(F)F [CA177] | 4.94% |
| O=C(O)C1(c2ccccc2Cl)CCOCC1 [CA178] | 4.04% |
| Cc1noc(C)c1Cc1ccc(C(=O)O)o1 [CA179] | 2.24% |
| Cc1cc(NS(=O)(=O)c2cccc(C(=O)O)c2)no1 [CA180] | 2.04% |
| CN1CCN(C(=O)C2CC=CCC2C(=O)O)CC1 (centres unmarked) [CA181] | 2.59% |
| O=C(O)c1ccc(S(=O)(=O)N2CCOCC2)cc1 [CA182] | 2.85% |
| O=C(O)Cc1csc(-n2cccc2)n1 [CA183] | 4.52% |
| Cc1cc(-c2nc(C)sc2CC(=O)O)c(C)s1 [CA184] | 3.02% |
| O=C(O)C1CC(=O)N(CCOc2ccccc2Cl)C1 (centres unmarked) [CA185] | 3.64% |
| O=C(O)c1ccc(-n2ncc(Cl)c(Cl)c2=O)cc1 [CA186] | 20.6% |
| O=C(O)c1ccc(CN2CCOCC2)cc1 [CA187] | 12.1% |
| O=C(O)c1cnc(-c2ccco2)s1 [CA188] | 10.2% |
| O=C(O)Cc1csc(-c2cccs2)n1 [CA189] | 4.78% |
| O=C(O)c1csc(-c2ccccn2)n1 [CA190] | 9.48% |
| Cc1noc(C)c1COc1ccc(CC(=O)O)cc1 [CA191] | 4.33% |

The remaining lines, values ahead:

| inhibition at 1.25 µM | SMILES |
| --- | --- |
| 11.7% | O=C(O)c1cnc(-c2cccs2)s1 [CA192] |
| 5.93% | O=C(O)CC1=NN(c2ncc(C(F)(F)F)cc2Cl)C(=O)C1 [CA193] |
| 9.72% | O=C(O)c1cccc(COc2cccc(F)c2)c1 [CA194] |
| 11% | O=C(O)c1occc1COc1ccccc1 [CA195] |
| 6.54% | Cc1nc(-c2cnn(C)c2)sc1C(=O)O [CA196] |
| 4.78% | O=C(O)C1CCN(C(=O)CCOc2ccccc2)CC1 [CA197] |
| 0.78% | Cn1cc(S(=O)(=O)N2CCCC(C(=O)O)C2)cn1 (centres unmarked) [CA198] |
| 1.4% | O=C(O)c1cc(S(=O)(=O)N2CCOCC2)c[nH]1 [CA199] |
| 0.4% | COc1ccc(OCc2cc(C)on2)c(C(=O)O)c1 [CA200] |
| 1.58% | O=C(O)C1CC(=O)N(CCN2CCOCC2)C1 (centres unmarked) [CA201] |
| 0.44% | O=C(O)Cc1cccc(OCc2cccnc2)c1 [CA202] |
| 0.22% | CN(Cc1cccnc1)S(=O)(=O)c1cc(C(=O)O)n(C)c1 [CA203] |
| -0.12% | Cc1n[nH]c(C)c1S(=O)(=O)N1CCC(C(=O)O)CC1 [CA204] |
| 0.0344% | Cc1ccc(-c2cc(C(=O)O)[nH]n2)o1 [CA205] |
| 1.55% | O=C(O)c1occc1CN1CCOCC1 [CA206] |
| -2.79% | O=C(O)c1ccc(COc2ccccc2Br)cc1 [CA207] |

Same assay, conditions: mUSP18 %inhibition; carboxylic acid (CA) with coupling reagents DIC/HOBT; read-out: %inh CA + DIC/HOBT

| SMILES | inhibition at 1.25 µM |
| --- | --- |
| O=C(O)c1cnn(CC2CCCCO2)c1 (centres unmarked) [CA174] | 8.37% |
| Cc1cc(C(=O)O)c(C2CC2)s1 [CA175] | 12.1% |
| O=C(O)c1ccc(-n2ccnc2)nn1 [CA176] | 5.42% |
| O=C(O)c1c(-c2ccccc2)noc1C(F)F [CA177] | 4.56% |
| O=C(O)C1(c2ccccc2Cl)CCOCC1 [CA178] | 11.9% |
| Cc1noc(C)c1Cc1ccc(C(=O)O)o1 [CA179] | 4.32% |
| Cc1cc(NS(=O)(=O)c2cccc(C(=O)O)c2)no1 [CA180] | 3.97% |
| CN1CCN(C(=O)C2CC=CCC2C(=O)O)CC1 (centres unmarked) [CA181] | 16.4% |
| O=C(O)c1ccc(S(=O)(=O)N2CCOCC2)cc1 [CA182] | 2.77% |
| O=C(O)Cc1csc(-n2cccc2)n1 [CA183] | 3.13% |
| Cc1cc(-c2nc(C)sc2CC(=O)O)c(C)s1 [CA184] | 10.3% |
| O=C(O)C1CC(=O)N(CCOc2ccccc2Cl)C1 (centres unmarked) [CA185] | 9.2% |
| O=C(O)c1ccc(-n2ncc(Cl)c(Cl)c2=O)cc1 [CA186] | 9.85% |
| O=C(O)c1ccc(CN2CCOCC2)cc1 [CA187] | -2.66% |
| O=C(O)c1cnc(-c2ccco2)s1 [CA188] | -0.34% |
| O=C(O)Cc1csc(-c2cccs2)n1 [CA189] | -9.04% |
| O=C(O)c1csc(-c2ccccn2)n1 [CA190] | 6.54% |
| Cc1noc(C)c1COc1ccc(CC(=O)O)cc1 [CA191] | 1.25% |

Now from value to molecule:

| inhibition at 1.25 µM | SMILES |
| --- | --- |
| 0.91% | O=C(O)c1cnc(-c2cccs2)s1 [CA192] |
| 4.27% | O=C(O)CC1=NN(c2ncc(C(F)(F)F)cc2Cl)C(=O)C1 [CA193] |
| 3.17% | O=C(O)c1cccc(COc2cccc(F)c2)c1 [CA194] |
| 6.35% | O=C(O)c1occc1COc1ccccc1 [CA195] |
| 3.44% | Cc1nc(-c2cnn(C)c2)sc1C(=O)O [CA196] |
| 1.19% | O=C(O)C1CCN(C(=O)CCOc2ccccc2)CC1 [CA197] |
| 2.3% | Cn1cc(S(=O)(=O)N2CCCC(C(=O)O)C2)cn1 (centres unmarked) [CA198] |
| 2.51% | O=C(O)c1cc(S(=O)(=O)N2CCOCC2)c[nH]1 [CA199] |
| 3.72% | COc1ccc(OCc2cc(C)on2)c(C(=O)O)c1 [CA200] |
| 1.88% | O=C(O)C1CC(=O)N(CCN2CCOCC2)C1 (centres unmarked) [CA201] |
| 3.16% | O=C(O)Cc1cccc(OCc2cccnc2)c1 [CA202] |
| 4.09% | CN(Cc1cccnc1)S(=O)(=O)c1cc(C(=O)O)n(C)c1 [CA203] |
| 3.04% | Cc1n[nH]c(C)c1S(=O)(=O)N1CCC(C(=O)O)CC1 [CA204] |
| 4.51% | Cc1ccc(-c2cc(C(=O)O)[nH]n2)o1 [CA205] |
| 4.49% | O=C(O)c1occc1CN1CCOCC1 [CA206] |
| 10.7% | O=C(O)c1ccc(COc2ccccc2Br)cc1 [CA207] |
